Measurements from patent US5073539A, “Transdermal administration of zwitterionic drugs” (Ciba-Geigy Corporation, priority 1990, dated 1991).
≈ marks a conversion by molar mass, not a printed value. Structures can show the parent of a compound that is named as a salt. Where two headings read alike, the source gives them in different places.

Legend:
[1] = Solubility in ethanol at 25 deg. C.; assay type: physicochemical; conditions: average of triplicate
[2] = Permeation rate through polyurethane; assay type: physicochemical
From the text: (§1) In the examples, the solubilities of free zwitterion and enhanced solubilities of various salts thereof are reported in various degrees in the following solvents: water, ethanol, octanol, chloroform and human stratum corneum. Permeation rates are also shown for these zwitterionic compounds and enhanced fluxes of the salts thereof through materials including polyurethane. While such materials are impractical for transdermal devices for free zwitterions, these materials are practical for the transdermal delivery of salts of zwitterions. The solubility in water is given as a model of polar solvents, while the octanol and chloroform are given as models for skin lipids. The critical factor for inclusion of a salt within the invention is that relative to its non salt zwitterion parent compound, the salt form of the invention has a greater solubility in both polar and lipid skin models.
(§2) Average of values measured in triplicate.

[3] = Solubility in octanol at 25 deg. C. (model of skin lipids); assay type: physicochemical; conditions: average of triplicate
From the text: (§3) The solubility in water is given as a model of polar solvents, while the octanol and chloroform are given as models for skin lipids.

[4] = Solubility in chloroform at 25 deg. C. (model of skin lipids); assay type: physicochemical
From the text: as §1, §2

[5] = Solubility in water at 25 deg. C.; assay type: physicochemical; conditions: average of triplicate
From the text: as §3

[6] = Permeation rate through human epidermis; assay type: in vitro ADME
From the text: as §1, §2

[7] = Solubility in human stratum corneum; assay type: physicochemical; conditions: average of triplicate
From the text: as §1, §2

[8] = at 25 deg. C., average of triplicate

Row | Structure (SMILES) | Solubility in ethanol [1] [mg/mL] | Permeation rate through polyurethane ([2]; average of triplicate) [ug/cm 2/hr] | R.E. (relative enhancement) of permeation rate through polyurethane ([2]; relative to free zwitterion) | Solubility in octanol [3] [mg/mL] | Solubility in chloroform [4, 8] [µg/mL] | Solubility in water [5] [mg/mL] | Permeation rate through polyurethane [2] [ug/cm 2/hr] | R.E. (relative enhancement) of permeation rate through polyurethane [2] | other results
1 | NCC(CC(=O)O)c1ccc(Cl)cc1 (stereo not drawn) [Bac. pentane sulfonate] | 61.6503 | 220.2 | 41.30 | 0.5764 | 37.4 | – | – | – | –
2 | NCC(CC(=O)O)c1ccc(Cl)cc1 (stereo not drawn) [Bac. methane sulfonate, baclofen methane sulfonate] | 170.84 | 287.9 | 54.12 | – | 0.087 | 8.8269 | – | – | solubility in chloroform versus free zwitterion ([4]; in words, exception to salt being more soluble): one exception
3 | NCC(CC(=O)O)c1ccc(Cl)cc1 (stereo not drawn) [Baclofen (Bac), Baclofen, reference compound] | 1.1441 (≈ 5.35 mM) | 5.32 | 1.00 | 0.0222 (≈ 0.104 mM) | 0.22 (≈ 0.00103 mM) | 6.8287 (≈ 32 mM) | – | – | Permeation rate through human epidermis ([6]; average of triplicate): 0.118 ug/cm 2/hr; R.E. (relative enhancement) of permeation rate through human epidermis ([6]; relative to free zwitterion): 1.00; Solubility in human stratum corneum [7]: 0.00311 mg/mL (≈ 0.0146 mM)
4 | NCC(CC(=O)O)c1ccc(Cl)cc1 (stereo not drawn) [Bac. hydrochloride] | 37.4989 | 273.7 | 51.45 | 0.3243 | 5.34 | 244.6225 | – | – | Solubility in human stratum corneum [7]: 0.21469 mg/mL
5 | N[C@@H](Cc1ccccc1)C(=O)O [Phenylalanine (Phe), Phenylalanine, reference compound] | – | 1.92 | 1.00 | – | – | – | – | – | solubility ([1]; ethanol, organic solvent or mixture): 0.234 mg/mL (≈ 1.42 mM); Permeation rate through human epidermis ([6]; average of triplicate): 1.02 ug/cm 2/hr; R.E. (relative enhancement) of permeation rate through human epidermis ([6]; relative to free zwitterion): 1.00; solubility ([3]; octanol, organic solvent or mixture): 0.0123 mg/mL (≈ 0.0745 mM); solubility ([5]; water): 25.3 mg/mL (≈ 153 mM); solubility ([4]; chloroform, organic solvent or mixture, at 25 deg. C., average of triplicate): 0.00021 mg/mL (≈ 0.00127 mM)
6 | NCCCC[C@H](N[C@H]1CCc2ccccc2N(CC(=O)O)C1=O)C(=O)O [CGS 16617. dihydrobromide] | 45.0269 | – | – | 0.5067 | – | 1423 | 65.31 | 121.39 | –
7 | O=C(O)CN1C(=O)[C@@H](N[C@@H](CCc2ccccc2)C(=O)O)CCc2ccccc21 [Benazeprilat (CGS14831), Benazeprilat, reference compound] | 0.12089 (≈ 0.305 mM) | – | – | – | – | – | 0.311 | 1.00 | Permeation rate through human epidermis [6]: 0.1409 ug/cm 2/hr; R.E. (relative enhancement) of permeation rate through human epidermis [6]: 1.00
8 | NCC(CC(=O)O)c1ccc(Cl)cc1 (stereo not drawn) [Bac. ethane sulfonate] | 237.181 | 211.9 | 39.83 | – | 11.17 | 38.8898 | – | – | –
9 | NCC(CC(=O)O)c1ccc(Cl)cc1 (stereo not drawn) [Bac. sodium salt] | 529.056 | 605.3 | 113.78 | – | 3.47 | 21.3797 | – | – | –
10 | NCC(CC(=O)O)c1ccc(Cl)cc1 (stereo not drawn) [Bac. propane sulfonate] | 107.317 | 233.9 | 43.97 | – | 8.74 | 24.4257 | – | – | –
11 | NCC(CC(=O)O)c1ccc(Cl)cc1 (stereo not drawn) [Bac. fumarate] | – | 11.4 | 2.14 | – | 0.627 | 1.1875 | – | – | –
12 | NCC(CC(=O)O)c1ccc(Cl)cc1 (stereo not drawn) [Bac. lithium salt] | 57.8373 | 128.3 | 24.12 | – | 6.93 | 21.7191 | – | – | –
13 | NCC(CC(=O)O)c1ccc(Cl)cc1 (stereo not drawn) [Bac. potassium salt] | – | 587.8 | 110.49 | – | – | – | – | – | –
14 | NCCCC[C@H](N[C@H]1CCc2ccccc2N(CC(=O)O)C1=O)C(=O)O [CGS 16617. dihydrochloride] | 1.89075 | – | – | 0.0878 | – | 1127.8 | 13.34 | 24.80 | –
15 | NCCCC[C@H](N[C@H]1CCc2ccccc2N(CC(=O)O)C1=O)C(=O)O [CGS 16617, reference compound] | 0.1907 (≈ 0.525 mM) | – | – | 0.02336 (≈ 0.0643 mM) | – | 491.5 (≈ 1350 mM) | 0.538 | 1.00 | –
16 | NCC(CC(=O)O)c1ccc(Cl)cc1 (stereo not drawn) [Bac. hydrofluoride] | 1.79088 (≈ 8.38 mM) | 3.45 | 0.65 | – | 0.104 (≈ 0.000487 mM) | 1.3962 (≈ 6.53 mM) | – | – | Solubility in human stratum corneum [7]: 0.02215 mg/mL (≈ 0.104 mM)
17 | NCCCC[C@H](N[C@H]1CCc2ccccc2N(CC(=O)O)C1=O)C(=O)O [CGS 16617. monomaleate] | 0.24882 | – | – | 0.01396 | – | 623.9 | 3.47 | 6.45 | –
18 | O=C(O)CN1C(=O)[C@@H](N[C@@H](CCc2ccccc2)C(=O)O)CCc2ccccc21 [CGS 14831. dipotassium salt] | 34.19351 | – | – | – | – | – | 75.01 | 241.19 | Permeation rate through human epidermis [6]: 20.56 ug/cm 2/hr; R.E. (relative enhancement) of permeation rate through human epidermis [6]: 145.92
19 | O=C(O)CN1C(=O)[C@@H](N[C@@H](CCc2ccccc2)C(=O)O)CCc2ccccc21 [CGS 14831. dilithium salt] | 27.97561 | – | – | – | – | – | 47.76 | 153.57 | Permeation rate through human epidermis [6]: 8.95 ug/cm 2/hr; R.E. (relative enhancement) of permeation rate through human epidermis [6]: 63.52
20 | NCC(CC(=O)O)c1ccc(Cl)cc1 (stereo not drawn) [Bac. maleate] | – | 19.13 | 3.59 | – | 0.026 | 1.2923 | – | – | –
21 | NC(Cc1ccccc1)C(=O)O (stereo not drawn) [Phe. hydrochloride] | 107.1459 | 1516.23 | 789.70 | 40.2318 | 58.26 | 959.6908 | – | – | Permeation rate through human epidermis ([6]; average of triplicate): 77.53 ug/cm 2/hr; R.E. (relative enhancement) of permeation rate through human epidermis ([6]; relative to free zwitterion): 76.01
